Experimental data from ChEMBL document CHEMBL1150936, “Antioxidative bromoindole derivatives from the mid-intestinal gland of the muricid gastropod Drupella fragum” (J Nat Prod, 1998).

Test: Antioxidant activity assessed as peroxide value relative to control
Format: functional

Row | SMILES | Activity (milliequivalent/kg)
1 | Oc1c(Br)cc2[nH]ccc2c1O | 0.194
2 | Cc1c(C)c2c(c(C)c1O)CC[C@@](C)(CCC[C@H](C)CCC[C@H](C)CCCC(C)C)O2 | 0.062
3 | Oc1cc(Br)c(O)c2[nH]ccc12 | 0.106
4 | Oc1cc2cc[nH]c2cc1Br | 0.036
5 | Cc1cc(C(C)(C)C)c(O)c(C(C)(C)C)c1 | 0.031
